Experimental data taken from patent US20040213755A1, “Compositions and methods for reducing odor” (priority 2000, published 2004).

What was measured:
[1] = GC headspace analysis of odor emitting compound; details: 500 μL of 0.82% solution in water; % of control; 0% = complete removal
Description: (§1) The first odor reducing composition of the invention was 89% L-aspartic acid, 1% ZnO, and 10% Smellrite® zeolite (Invention #1). The second odor reducing composition of the invention was 88% L-aspartic acid, 2% ZnO, and 10% Smellrite® zeolite (Invention #2). The odor emitting compounds were tested neat, and triethylamine (0.1%), dimethylsulfide (0.1%), and isovaleric acid (0.82%) were also tested as solutions in water.
(§2) In the tests using the water solutions of the odor emitting compounds, 500 μL of the solutions were used for all samples.
(§3) Samples were prepared using 20 mL serum bottles with septum caps, and gas tight syringes were used to sample the headspace in the serum bottles. The sample was weighed into the serum bottle, the odor emitting compounds were added, and the sample bottles capped. The sample and the odor emitting compound in the serum bottle was mixed in each case. The serum bottle was then allowed to stand for 30 minutes and a 100 μL sample was taken from headspace of the serum bottle using a gas tight syringe and then injected into a gas chromatograph (GC) for analysis.
(§4) The GC analysis was performed using a H—P 5890-11 GC with a FID detector and a Split/Splitless injector, and a H—P 3396 integrator. The column used was a capillary H—P Ultra-2 (50 m×0.32 mm×0.52 μm). The GC conditions used were: injector temperature=300° C., detector temperature=330° C., oven temperature program=70° C. initial hold for 4 min., raise temperature 7° C./min. to 235° C., hold at 235° C. for 4 min. with total run length of 31.6 min. The split was turned off at injection and turned on after 30 seconds.
(§5) Complete removal of odor is represented as 0% and the control is 100%.

[2] = GC headspace analysis of odor emitting compound; details: 500 μL of 0.1% solution in water; % of control; 0% = complete removal
Description: as §1, §2, §3, §4, §5

[3] = GC headspace analysis of odor emitting compound; details: 500 μL of 0.1% solution in water; % of control; 0% = complete removal; remark: listed apart in the source
Description: as §1, §2, §3, §4, §5

SMILES	% Odor, Isovaleric acid (0.82% in water) [1]	% Odor, Triethylamine (0.1% in water) [2]	% Odor, Dimethylsulfide (0.1% in water) [3]
O=C([O-])O.[Na+] [Baking soda, sodium bicarbonate]	8.7%	19.%	93.6%
N[C@@H](CC(=O)O)C(=O)O [L-aspartic acid]	13.9%	0%	82.2%
[O]=[Zn] [Zinc oxide, zinc oxide]	0%	79.3%	96.4%
